Source: patent US7452894B2, “Purine derivatives as purinergic receptor antagonists” (Vernalis Research Limited, priority 2001, dated 2008)
pKi: −log10 of the molar value. Read-outs that look alike come from different tables or passages of the source.

Experiments:
[1] = cited from earlier work
[2] = biological target: human adenosine A2A receptors (Homo sapiens, UniProt P29274); test: Binding affinities at hA2A receptors, displacement of [3H]-CGS 21680
adenosine A2A receptor = conditions: cited from earlier work
[3] = human adenosine A2A receptor, radioligand [3H]-CGS 21680

Chain of human adenosine A2A receptors (P29274 whole entry): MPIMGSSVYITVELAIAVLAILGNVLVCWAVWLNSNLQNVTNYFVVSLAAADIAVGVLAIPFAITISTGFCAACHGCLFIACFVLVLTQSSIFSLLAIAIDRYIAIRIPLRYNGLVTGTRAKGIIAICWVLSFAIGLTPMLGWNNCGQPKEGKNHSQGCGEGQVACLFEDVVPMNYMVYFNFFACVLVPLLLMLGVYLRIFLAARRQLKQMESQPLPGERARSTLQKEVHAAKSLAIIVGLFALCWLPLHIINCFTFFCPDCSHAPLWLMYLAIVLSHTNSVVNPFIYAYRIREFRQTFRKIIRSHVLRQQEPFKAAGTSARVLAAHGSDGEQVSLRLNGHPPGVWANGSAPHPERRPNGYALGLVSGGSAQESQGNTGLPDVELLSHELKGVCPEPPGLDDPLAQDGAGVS

## Cn1c(=O)c2[nH]cnc2n(C)c1=O [theophylline]
[1]; 15 Parkinsonian patients, up to 12 weeks, 150 mg/day oral
  mean objective disability scores: significant improvements
[1]; slow release oral preparation 150 mg/day, after one week, Parkinsonian patients
  serum theophylline levels: 4.44 mg/L

## CSc1nc(-c2ccco2)c2nc[nH]c2n1 [Example 13, 6-(2-Furyl)-2-methylthio-1H-purine]
other
  melting point: 239.5 to 239.9 °C
[2]
  pKi: 7.92

## Cc1ccc(Cn2cnc3c(-c4ccc(C)o4)nc(N)nc32)cc1 [Example 208, 9-(4-Methylbenzyl)-6-(5-methyl-2-furyl)-9H-purine2-amine]
other
  melting point: 210 to 220 °C (dec.)
[2]
  pKi: 8.22

## Nc1nc(-c2ccco2)c2ncn(C(=O)OCc3ccccc3)c2n1 [Example 106, Benzyl 2-amino-6-(2-furyl)-9H-purine-9-carboxylate]
other
  melting point: 161.7 °C (dec.)
[2]
  pKi: 9.00

## Nc1nc(-c2ccco2)c2ncn(C(=O)NCc3cccs3)c2n1 [Example 202, 2-Amino-6-(2-furyl)-N-(2-thienylmethyl)-9H-purine-9-carboxamide]
[2]; [3]
  pKi: 9.00

## Nc1nc(-c2ccco2)c2ncn(C(=O)NCc3ccccc3Cl)c2n1 [Example 39, 2-Amino-N-(2-chlorobenzyl)-6-(2-furyl)-9H-purine-9-carboxamide]
[2]; [3]
  pKi: 9.00

## Nc1nc(-c2ccco2)c2ncn(C(=O)NCc3ccc(Cl)c(Cl)c3)c2n1 [Example 80, 2-Amino-N-(3,4-dichlorobenzyl)-6-(2-furyl)-9H-purine-9-carboxamide]
[2]
  pKi: 8.30

## COc1nc(-c2ccco2)c2ncn(C(=O)NCc3ccccc3)c2n1 [Example 112, N-Benzyl-2-methoxy-6-(2-furyl)-9H-purine-9-carboxamide]
[2]; [3]
  pKi: 8.10

## Nc1nc(-c2ccco2)c2ncn(S(=O)(=O)c3ccc(Br)cc3)c2n1 [Example 162, 9-(4-Bromophenyl)sulphonyl-6-(2-furyl)-9H-purine-2-amine]
[2]
  pKi: 8.10

## Nc1nc(-c2ccco2)c2ncn(C(=O)NCc3ccco3)c2n1 [Example 201, 2-Amino-6-(2-furyl)-N-(2-furylmethyl)-9H-purine-9-carboxamide]
[2]; [3]
  pKi: 8.70

## Nc1nc(-c2ccco2)c2ncn(CCCc3cccnc3)c2n1 [Example 189, 6-(2-Furyl)-9-(3-(3-pyridyl)propyl)-9H-purine-2-amine]
[2]
  pKi: 7.68

## CCCCCNC(=O)n1cnc2c(-c3ccco3)nc(N)nc21 [Example 52, 2-Amino-6-(2-furyl)-N-n-pentyl-9H-purine-9-carboxamide]
[2]
  pKi: 8.30

## Nc1nc(-c2ccco2)c2ncn(C(=O)NCc3ccc(Cl)cc3Cl)c2n1 [Example 93, 2-Amino-N-(2,4-dichlorobenzyl)-6-(2-furyl)-9H-purine-9-carboxamide]
[2]
  pKi: 8.40

## CCCn1c(=O)c2c(nc(/C=C/c3ccc(OC)c(OC)c3)n2C)n(CCC)c1=O [KF 17837, (E)-8-(3,4-dimethoxystyryl)-1,3-dipropyl-7-methylxanthine]
Adenosine A2A receptor; in vivo
  anticataleptic effects of a subthreshold dose of L-DOPA plus benserazide: potentiated
  catalepsy induced by haloperidol and reserpine: reduced
Adenosine A2A receptor; oral administration
  cataleptic responses induced by intracerebroventricular CGS 21680: significantly ameliorated

## CN(Cc1ccccc1)C(=O)n1cnc2c(-c3ccco3)nc(N)nc21 [Example 118, 2-Amino-N-benzyl-6-(2-furyl)-N-methyl-9H-purine-9-carboxamide]
[2]
  pKi: 8.52

## C[C@H](NC(=O)n1cnc2c(-c3ccco3)nc(N)nc21)c1ccccc1 [Example 45, (1S)-2-Amino-6-(2-furyl)-N-(1-phenyethyl)-9H-purine-9-carboxamide]
[2]; [3]
  pKi: 8.70

## Cc1csc(-c2nc(N)nc3c2ncn3Cc2ccccc2F)n1 [Example 244, 9-(2-Fluorobenzyl)-6-(4-methyl-2-thiazolyl)-9H-purine-2-amine]
other
  melting point: 259.2 °C
[2]
  pKi: 8.15

## Nc1nc(-c2ccco2)c2ncn(Cc3ccccc3F)c2n1 [Example 157, 9-(2-Fluorobenzyl)-6-(2-furyl)-9H-purine-2-amine]
[2]
  pKi: 8.40

## CN(C)c1nc(-c2ccco2)c2nc[nH]c2n1 [Example 3, N,N-Dimethyl-6-(2-furyl)-1H-purine-2-amine]
[2]
  pKi: 7.64

## Nc1nc(-c2ccco2)c2ncn(Cc3ccc(Cl)s3)c2n1 [Example 240, 9-(5-Chloro-2-thienylmethyl)-6-(2-furyl)-9H-purine-2-amine]
other
  melting point: 210.9 to 211.5 °C
[2]
  pKi: 8.15

## Cc1cccc(CNC(=O)n2cnc3c(-c4ccco4)nc(N)nc32)c1 [Example 47, 2-Amino-6-(2-furyl)-N-(3-methylbenzyl)-9H-purine-9-carboxamide]
[2]; [3]
  pKi: 9.00

## Nc1nc(-c2ccco2)c2ncn(CC(=O)Nc3cccc(Cl)c3)c2n1 [Example 141, 2-Amino-N-(3-chlorophenyl)-6-(2-furyl)-9H-purine-9-acetamide]
other
  melting point: 278 °C (dec.)
[2]
  pKi: 7.44

## Cn1cnc(S(=O)(=O)Nc2ccccc2Cn2cnc3c(-c4ccco4)nc(N)nc32)c1 [Example 235, 6-(2-Furyl)-9-(2-(1-methyl-1H-imidazol-4-ylsulphonylamino)benzyl)-9H-purine-2-amine]
other
  melting point: 253.1 to 257.1 °C
[2]
  pKi: 8.40
